From patent US20240116985A1, “STAPLED PEPTIDES AND METHODS THEREOF” (priority 2020, published 2024)
Blank lines part the entries; values can stand above or below the molecule they belong to.

Assay: CHI Log D procedure
Assay type: physicochemical
Details: for CHI Log D: pH 7.4; for chromatographic logD: pH 7.4, CHI Log D

Compound: CC[C@H](C)[C@H](NC(=O)[C@H](CC(=O)O)NC(=O)[C@H](C)NC(C)=O)C(=O)N[C@]1(C)CCN(C)C(=O)OCC=CCCCCC[C@@](C)(C(=O)N[C@@H](Cc2ccccc2)C(=O)N[C@@H](Cc2c[nH]c3ccccc23)C(=O)N[C@@H](Cc2c[nH]cn2)C(N)=O)NC(=O)[C@H](CCC(N)=O)NC(=O)[C@H](Cc2ccccc2)NC(=O)[C@H](C)NC(=O)[C@H](C)NC(=O)[C@H](CC2CCCCC2)NC(=O)[C@H](CC(=O)O)NC1=O (single isomer, unassigned) [I-73, Ac-Ala-Asp-Ile-RdN-Asp-Cha-Ala-Ala-Phe-Gln-S7-Phe-Trp-His-NH2]
CHI Log D: 1.723

Compound: CC(=O)N1CCC[C@]12CC=CCCCC1(CCCC=CCCCCCC[C@@](C)(C(=O)N[C@@H](Cc3ccccc3)C(=O)N[C@@](C)(Cc3c[nH]c4ccccc34)C(=O)N[C@@H](CCC(N)=O)C(N)=O)NC(=O)[C@H](C(C)C)NC(=O)[C@H](Cc3ccccc3)NC(=O)[C@H](C)NC(=O)[C@H](C)NC(=O)[C@H](CCC(=O)O)NC(=O)[C@H](CC(=O)O)NC1=O)NC(=O)[C@H](C)NC(=O)[C@H](CC(=O)O)NC2=O (stereo partly drawn) [I-137, Ac-PL3-Asp-Ala-B5-Asp-Glu-Ala-Ala-Phe-Val-S8-Phe-aMeW-Gln-NH2]
CHI Log D: 2.174

Compound: CC(=O)N[C@@H](Cc1ccccc1)C(=O)N[C@@H](CC(=O)O)C(=O)N[C@@H](C)C(=O)N[C@]1(C)CCCCCCC=CCOC(=O)N2CC[C@@](C(=O)N[C@@H](Cc3ccccc3)C(=O)N[C@@H](Cc3c[nH]c4ccccc34)C(=O)N[C@@H](CCC(N)=O)C(N)=O)(C2)NC(=O)[C@H](C(C)C)NC(=O)[C@H](Cc2ccccc2)NC(=O)[C@H](C)NC(=O)[C@H](C)NC(=O)[C@H](Cc2ccc(C(=O)O)cc2)NC(=O)[C@H](CC(=O)O)NC1=O (single isomer, unassigned) [I-8, Ac-Phe-Asp-Ala-R8-Asp-4COOHF-Ala-Ala-Phe-Val-PyrS-Phe-Trp-Gln-NH2]
CHI Log D: 1.349

Compound: CC[C@H](C)[C@H](NC(=O)[C@H](CC(=O)O)NC(=O)[C@H](C)NC(C)=O)C(=O)N[C@]1(C)CCN(C)C(=O)OCC=CCCCCC[C@@](C)(C(=O)N[C@@H](Cc2ccccc2)C(=O)N[C@@H](Cc2c[nH]c3ccccc23)C(=O)N[C@@H](Cc2c[nH]cn2)C(N)=O)NC(=O)[C@H](CCC(N)=O)NC(=O)[C@H](Cc2ccccc2)NC(=O)[C@H](C)NC(=O)[C@H](C)NC(=O)[C@H](CCC(C)C)NC(=O)[C@H](CC(=O)O)NC1=O (single isomer, unassigned) [I-71, Ac-Ala-Asp-Ile-RdN-Asp-hLeu-Ala-Ala-Phe-Gln-S7-Phe-Trp-His-NH2]
CHI Log D: 1.686

Compound: COCCOCCC(=O)NCCCC[C@@H]1NC(=O)[C@H](C)NC(=O)[C@H](CC(=O)O)NC(=O)[C@H](CC(=O)O)NC(=O)C2(CCCC=CCCCOC(=O)N3CC[C@@](C(=O)N[C@@H](Cc4ccsc4)C(=O)N[C@@H](Cc4csc5ccccc45)C(=O)N[C@@H](CCC(N)=O)C(N)=O)(C3)NC(=O)[C@H](CC(N)=O)NC(=O)[C@H](Cc3ccccc3)NC1=O)CCCC=CC[C@]1(CCCN1C(C)=O)C(=O)N[C@@H](CC(=O)O)C(=O)N[C@@H](CC(C)(C)C)C(=O)N2 (stereo partly drawn) [I-893, Ac-PL3-Asp-Npg-B5-Asp-Asp-Ala-[mPEG2]Lys-Phe-Asn-PyrS2-3Thi-BztA-Gln-NH2]
CHI Log D: 1.759

Compound: CC(=O)N[C@@H](Cc1ccccc1)C(=O)N[C@@H](CC(=O)O)C(=O)N[C@]1(C)CCCCCCC=CCOC(=O)N2CC[C@@](C(=O)N[C@@H](C)C(=O)N[C@@H](Cc3ccccc3)C(=O)N[C@@H](Cc3c[nH]c4ccccc34)C(=O)N[C@@H](CCC(N)=O)C(N)=O)(C2)NC(=O)[C@H](Cc2ccccc2)NC(=O)[C@H](C)NC(=O)[C@H](C)NC(=O)[C@H](CC(=O)O)NC(=O)[C@H](CC(=O)O)NC(=O)[C@H](C)NC1=O [I-51, Ac-Phe-Asp-R8-Ala-Asp-Asp-Ala-Ala-Phe-PyrS-Ala-Phe-Trp-Gln-NH2]
chromatographic logD: 1.25

Compound: CC(=O)N[C@@H](Cc1ccccc1)C(=O)N[C@@H](CC(=O)O)C(=O)N[C@@H](C)C(=O)N[C@]1(C)CCCCCCC=CCOC(=O)N2CC[C@@](C(=O)N[C@@H](Cc3ccccc3)C(=O)N[C@@H](Cc3c[nH]c4ccccc34)C(=O)N[C@@H](CCC(N)=O)C(N)=O)(C2)NC(=O)[C@H](C(C)C)NC(=O)[C@H](CC2CCCCC2)NC(=O)[C@H](C)NC(=O)[C@H](C)NC(=O)[C@H](CC(=O)O)NC(=O)[C@H](CC(=O)O)NC1=O (single isomer, unassigned) [I-74, Ac-Phe-Asp-Ala-R8-Asp-Asp-Ala-Ala-Cha-Val-PyrS-Phe-Trp-Gln-NH2]
chromatographic logD: 1.33

Compound: CC[C@H](C)[C@@H]1NC(=O)[C@H](CC(=O)O)NC(=O)[C@]2(CC=CCCCC3(CCCC=CCCCCCC[C@@](C)(C(=O)N[C@@H](Cc4ccccc4)C(=O)N[C@@H](Cc4csc5ccccc45)C(=O)N[C@@H](CCC(N)=O)C(N)=O)NC(=O)[C@H](CCC(N)=O)NC(=O)[C@H](Cc4ccccc4)NC(=O)[C@H](C)NC(=O)[C@H](C)NC(=O)[C@H](CCC(=O)O)NC(=O)[C@H](CNS(=O)(=O)C(F)(F)F)NC3=O)NC1=O)CCCN2C(C)=O (stereo partly drawn) [I-631, Ac-PL3-Asp-Ile-B5-[Tf]Dap-Glu-Ala-Ala-Phe-Gln-S8-Phe-BztA-Gln-NH2]
CHI Log D: 4.365

Continued, values first:

CHI Log D: 1.032
Compound: CC(=O)N[C@@H](Cc1ccccc1)C(=O)N[C@@H](CC(=O)O)C(=O)N[C@@H](C)C(=O)N[C@]1(C)CCCCCCC=CCOC(=O)N2CC[C@@](C(=O)N[C@@H](Cc3cccnc3)C(=O)N[C@@H](Cc3c[nH]c4ccccc34)C(=O)N[C@@H](CCC(N)=O)C(N)=O)(C2)NC(=O)[C@H](C(C)C)NC(=O)[C@H](Cc2ccccc2)NC(=O)[C@H](C)NC(=O)[C@H](C)NC(=O)[C@H](CC(=O)O)NC(=O)[C@H](CC(=O)O)NC1=O (single isomer, unassigned) [I-83, Ac-Phe-Asp-Ala-R8-Asp-Asp-Ala-Ala-Phe-Val-PyrS-3PyrA-Trp-Gln-NH2]

CHI Log D: 0.935
Compound: CC(=O)N[C@@H](Cc1ccccc1)C(=O)N[C@@H](CC(=O)O)C(=O)N[C@@H](C)C(=O)N[C@]1(C)CCCCCCC=CCOC(=O)N2CC[C@@](C(=O)N[C@@H](Cc3ccccc3)C(=O)N[C@@H](Cc3c[nH]c4ccccc34)C(=O)N[C@@H](CCC(N)=O)C(N)=O)(C2)NC(=O)[C@H](C(C)C)NC(=O)[C@H](Cc2ccccc2)NC(=O)[C@H](CC(=O)O)NC(=O)[C@H](C)NC(=O)[C@H](CC(=O)O)NC(=O)[C@H](CC(=O)O)NC1=O (single isomer, unassigned) [I-20, Ac-Phe-Asp-Ala-R8-Asp-Asp-Ala-Asp-Phe-Val-PyrS-Phe-Trp-Gln-NH2]

CHI Log D: 1.359
Compound: CC(=O)N[C@@H](Cc1ccccc1)C(=O)N[C@@H](CC(=O)O)C(=O)N[C@@H](C)C(=O)N[C@]1(C)CCCCCCC=CCOC(=O)N2CC[C@@](C(=O)N[C@@H](Cc3ccccc3)C(=O)N[C@@H](Cc3c[nH]c4ccccc34)C(=O)N[C@@H](CCC(N)=O)C(N)=O)(C2)NC(=O)[C@H](CO)NC(=O)[C@H](Cc2ccccc2)NC(=O)[C@H](C)NC(=O)[C@H](C)NC(=O)[C@H](CC(=O)O)NC(=O)[C@H](CC(=O)O)NC1=O [I-164, Ac-Phe-Asp-Ala-R8-Asp-Asp-Ala-Ala-Phe-Ser-PyrS-Phe-Trp-Gln-NH2]

CHI Log D: 0.827
Compound: CC(=O)N[C@@H](Cc1ccccc1)C(=O)N[C@@H](CC(=O)O)C(=O)N[C@@H](C)C(=O)N[C@]1(C)CCCCCCC=CCOC(=O)N2CC[C@@](C(=O)N[C@@H](CCC(=O)O)C(=O)N[C@@H](Cc3c[nH]c4ccccc34)C(=O)N[C@@H](CCC(N)=O)C(N)=O)(C2)NC(=O)[C@H](C(C)C)NC(=O)[C@H](Cc2ccccc2)NC(=O)[C@H](C)NC(=O)[C@H](C)NC(=O)[C@H](CC(=O)O)NC(=O)[C@H](CC(=O)O)NC1=O (single isomer, unassigned) [I-162, Ac-Phe-Asp-Ala-R8-Asp-Asp-Ala-Ala-Phe-Val-PyrS-Glu-Trp-Gln-NH2]
